Experimental data as given in patent US20170348213A1, “Oral Care Composition” (Colgate-Palmolive Company, priority 2014, published 2017).

Tests used:
oral mucosal cells = experiment: Cell irritating effect on oral mucosal cells (Janus Green B staining, optical microscope); assay type: cell-based; details: aqueous solution
Method: Aqueous solutions of different concentrations of sodium […] (SLS) and sodium methyl cocoyl taurate (SMCT) were prepared. The solutions were used to challenge oral mucosal cells. Treated cells were stained with Janus Green B and morphological changes were observed using an optical microscope to determine whether or not the cells had become irritated or remained intact. Cells were identified as normal if the cells were in tact, the cell wall was smooth, the color of the cell core was clear/dark, and if organelles could be identified. Cells were identified as irritated if the cells could not be clearly defined with a blurring of the cell wall, if there was crimping of the cell, if the color of the cell core and plasma is lighter than observed for an intact cell, and if organelles could not be identified. […]

[1] = Antioxidant activity, LPO-CC kit (Kamiya Biomedical Company); assay type: biochemical; details: agent at 1% in ethanol
Method: The antioxidant activity of rutin was tested using an LPO-CC kit (Kamiya Biomedical Company), and compared to that of vitamin E. (The agents were tested in an amount of 1% in ethanol). The lower the optical density, the better the antioxidant capacity. The higher the percentage cumeme hydroperoxide reduction, the better the antioxidant capacity. The antioxidant efficacy of the formulations was also tested using the methods described in Example 5. The results are illustrated in Table 9a and 9b.

Substance | Cell irritating effects of aqueous surfactant solutions: Results (oral mucosal cells; 0.48 % active weight surfactant) | Cell irritating effects of aqueous surfactant solutions: Results (oral mucosal cells; 1.40 % active weight surfactant) | Cell irritating effects of aqueous surfactant solutions: Results (oral mucosal cells; 1.71 % active weight surfactant) | Cell irritating effects of aqueous surfactant solutions: Results (oral mucosal cells; 2.20 % active weight surfactant) | % reduction of cumeme hydroperoxide ([1]; higher = better antioxidant capacity) | Optical Density at 675 nm ([1]; lower optical density = better antioxidant capacity)
sodium lauryl ether sulfate [SLS] | No cell irritation | Cells irritated | Cells irritated | Cells irritated | – | –
vitamin E | – | – | – | – | 50.4719% | 0.2204
